Results taken from patent US11840686B2, “Modulation of prekallikrein (PKK) expression” (Ionis Pharmaceuticals, Inc., priority 2013, dated 2023).
pIC50: −log10 of the molar value. Strand notation (5' to 3'): a small letter for the sugar, then the base; units joined by * are phosphorothioate-linked, units joined directly phosphodiester-linked; [ ] holds rarer units or linkages, { } end groups; capitals alone tell only the bases. e = 2'-O-(2-methoxyethyl) (MOE); [5mC] = 5-methylcytosine; d = 2'-deoxy (DNA)

Key:
human PKK mRNA [1] = assay: Antisense inhibition of human PKK mRNA in HepaRG cells, 5,000 nM (Example 2); format: cell-based
Method in brief: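 Percent inhibition of PKK mRNA is reported relative to untreated cells, after adjustment for total RNA by RIBOGREEN. Gapmers of 16–20 nucleosides with 2′-MOE wings were delivered at 5,000 nM by electroporation into HepaRG cells and left for roughly 24 hours before RNA isolation.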

human PKK mRNA [2] = assay: Dose-dependent antisense inhibition of human PKK in HepaRG cells, 0.19-5.00 uM (Example 5); format: cell-based; details: HepaRG cells
Method in brief: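 HepaRG cells (20,000/well) were electroporated with antisense oligonucleotide at 0.19, 0.56, 1.67 and 5.00 μM and treated for about 16 hours. PKK mRNA was quantified by qRT-PCR with primer probe set RTS3454, normalised to RIBOGREEN total RNA, and IC50 was derived per oligonucleotide.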

[3] = electroporation, approximately 16 hours, Table 37
[4] = 4 point dose response, Table 37
[5] = electroporation, approximately 16 hours, Table 38
[6] = electroporation, approximately 16 hours, Table 35
[7] = 4 point dose response, Table 35
[8] = HepaRG cells, 5,000 nM antisense oligonucleotide, 5-10-5 gapmers, Table 16
[9] = electroporation, approximately 16 hours, Table 40

With “546304 (antisense e[5mC]*eT*eT*eT*eT*dA*dT*dT*dT*dG*dT*dG*dA*dG*dA*eA*eA*eG*eG*eT) [compound 546304]” the “% inhibition” value (human PKK mRNA [1]; Table 9 experiment, HepaRG cells, 20,000 cells per well, electroporation with 5,000 nM antisense oligonucleotide, approx. 24 hours, PKK mRNA by RT-PCR (RTS3454), relative to untreated control cells) was 94%, the “% inhibition” value (human PKK mRNA [1]; Table 10 experiment, HepaRG cells, 20,000 cells per well, electroporation with 5,000 nM antisense oligonucleotide, approx. 24 hours, PKK mRNA by RT-PCR (RTS3454), relative to untreated control cells) was 86% and the “percent inhibition of PKK at 0.19 μM” value (human PKK mRNA [2]; [3]) was 0%. The “percent inhibition of PKK at 0.56 μM” value (human PKK mRNA [2]; [3]) was 6%, the “percent inhibition of PKK at 1.67 μM” value (human PKK mRNA [2]; [3]) was 51% and the “percent inhibition of PKK at 5.00 μM” value (human PKK mRNA [2]; [3]) was 71%. The pIC50 (human PKK mRNA [2]; [4]) was 5.68.
“546429 (eG*e[5mC]*e[5mC]*e[5mC]*eA*d[5mC]*d[5mC]*dA*dA*d[5mC]*dA*dA*dT*d[5mC]*dT*e[5mC]*eT*eG*eG*eT; antisense) [compound 546429]” was tested, and the “% inhibition” value (human PKK mRNA [1]; HepaRG cells, electroporation, 5,000 nM antisense oligonucleotide, approx. 24 hours, primer probe set RTS3454, relative to untreated control cells, Table 12) was 84%, the “percent inhibition of PKK at 0.19 μM” value (human PKK mRNA [2]; [5]) was 6% and the “percent inhibition of PKK at 0.56 μM” value (human PKK mRNA [2]; [5]) was 10%. For the same substance, the “percent inhibition of PKK at 1.67 μM” value (human PKK mRNA [2]; [5]) was 44%, the “percent inhibition of PKK at 5.00 μM” value (human PKK mRNA [2]; [5]) was 69% and the pIC50 (human PKK mRNA [2]; 4 point dose response, Table 38) was 5.64.
With “547335 (antisense eT*eT*eA*eT*eA*dA*dA*dT*dG*dT*d[5mC]*dT*d[5mC]*dG*dA*eT*eG*eG*e[5mC]*eA) [compound 547335]” the “% inhibition” value (human PKK mRNA [1]; HepaRG cells, electroporation with 5,000 nM antisense oligonucleotide, approximately 24 hours, PKK mRNA by RT-PCR (RTS3454), relative to untreated control cells, Table 6 experiment) was 93%, the “percent inhibition of PKK at 0.19 μM” value (human PKK mRNA [2]; [6]) was 8% and the “percent inhibition of PKK at 0.56 μM” value (human PKK mRNA [2]; [6]) was 52%. For the same substance, the “percent inhibition of PKK at 1.67 μM” value (human PKK mRNA [2]; [6]) was 85%, the “percent inhibition of PKK at 5.00 μM” value (human PKK mRNA [2]; [6]) was 92% and the pIC50 (human PKK mRNA [2]; [7]) was 6.15. The “percent inhibition of PKK mRNA, 0.19 μM” value (human PKK mRNA [2]; 0.19 μM antisense oligonucleotide) was 0%, the “percent inhibition of PKK mRNA, 0.56 μM” value (human PKK mRNA [2]; 0.56 μM antisense oligonucleotide) was 13% and the “percent inhibition of PKK mRNA, 1.67 μM” value (human PKK mRNA [2]; 1.67 μM antisense oligonucleotide) was 73%. For the same substance, the “percent inhibition of PKK mRNA, 5.00 μM” value (human PKK mRNA [2]; 5.00 μM antisense oligonucleotide) was 95% and the pIC50 (human PKK mRNA [2]; 0.19-5.00 μM) was 5.89.
In the case of “547694 (antisense eG*eT*e[5mC]*eA*e[5mC]*dT*dG*dT*dA*d[5mC]*d[5mC]*dT*dA*dT*dA*eA*e[5mC]*eT*eG*eT) [compound 547694]”, the “% inhibition” value (human PKK mRNA [1]; [8]) was 92%, the “percent inhibition of PKK at 0.19 μM” value (human PKK mRNA [2]; [6]) was 0% and the “percent inhibition of PKK at 0.56 μM” value (human PKK mRNA [2]; [6]) was 29%. The “percent inhibition of PKK at 1.67 μM” value (human PKK mRNA [2]; [6]) was 67%, the “percent inhibition of PKK at 5.00 μM” value (human PKK mRNA [2]; [6]) was 90% and the pIC50 (human PKK mRNA [2]; [7]) was 5.92.
In the case of “547602 (antisense eT*e[5mC]*eA*e[5mC]*eT*dG*dT*dA*d[5mC]*d[5mC]*dT*dA*dT*dA*dA*e[5mC]*eT*e[5mC]*eT*eA) [compound 547602]”, the “% inhibition” value (human PKK mRNA [1]; human PKK mRNA in HepaRG cells, 5-10-5 gapmers, Table 14) was 93%, the “percent inhibition of PKK at 0.19 μM” value (human PKK mRNA [2]; [6]) was 18% and the “percent inhibition of PKK at 0.56 μM” value (human PKK mRNA [2]; [6]) was 53%. The “percent inhibition of PKK at 1.67 μM” value (human PKK mRNA [2]; [6]) was 92%, the “percent inhibition of PKK at 5.00 μM” value (human PKK mRNA [2]; [6]) was 87% and the “percent inhibition of PKK at 5.00 μM” value (human PKK mRNA [2]; electroporation, approximately 16 hours, Table 41) was 93%. The “percent inhibition of PKK at 0.19 0μM” value (human PKK mRNA [2]; 0.19 0μM, electroporation, approximately 16 hours, Table 41) was 1%, the “percent inhibition of PKK at 0.56 0μM” value (human PKK mRNA [2]; 0.56 0μM, electroporation, approximately 16 hours, Table 41) was 9% and the “percent inhibition of PKK at 1.67 1μM” value (human PKK mRNA [2]; 1.67 1μM, electroporation, approximately 16 hours, Table 41) was 52%. For the same substance, the pIC50 (human PKK mRNA [2]; [7]) was 6.30 and the pIC50 (human PKK mRNA [2]; 4 point dose response, Table 41) was 5.85.
For “547722 (e[5mC]*eT*e[5mC]*e[5mC]*eA*dG*dT*d[5mC]*dA*d[5mC]*d[5mC]*dA*d[5mC]*d[5mC]*dA*eT*eT*eG*e[5mC]*e[5mC]; antisense) [compound 547722]”, the “% inhibition” value (human PKK mRNA [1]; [8]) was 80%, the “percent inhibition of PKK at 0.19 μM” value (human PKK mRNA [2]; [9]) was 0% and the “percent inhibition of PKK at 0.56 μM” value (human PKK mRNA [2]; [9]) was 15%. For the same substance, the “percent inhibition of PKK at 1.67 μM” value (human PKK mRNA [2]; [9]) was 32%, the “percent inhibition of PKK at 5.00 μM” value (human PKK mRNA [2]; [9]) was 73% and the pIC50 (human PKK mRNA [2]; 4 point dose response, Table 40) was 5.62.
“546214 (antisense eG*eA*eG*eA*eA*d[5mC]*d[5mC]*d[5mC]*dT*dG*dG*d[5mC]*dA*dA*d[5mC]*eA*eT*e[5mC]*e[5mC]*eA) [compound 546214]” was tested, and the “% inhibition” value (human PKK mRNA [1]; Table 7, HepaRG cells, electroporation with 5,000 nM antisense oligonucleotide, approx. 24 hours, PKK mRNA by RT-PCR (RTS3454), relative to untreated control cells) was 88%, the “percent inhibition of PKK at 0.19 μM” value (human PKK mRNA [2]; [3]) was 0% and the “percent inhibition of PKK at 0.56 μM” value (human PKK mRNA [2]; [3]) was 0%. The “percent inhibition of PKK at 1.67 μM” value (human PKK mRNA [2]; [3]) was 68%, the “percent inhibition of PKK at 5.00 μM” value (human PKK mRNA [2]; [3]) was 85% and the pIC50 (human PKK mRNA [2]; [4]) was 5.89.
